Measured values reported in publication PMC7679387, “VZHE-039, a novel antisickling agent that prevents erythrocyte sickling under both hypoxic and anoxic conditions” (Scientific Reports, 2020).
Where “and” joins values, the source holds several entries; their conditions need not be identical. Equal entries are not always repeated. Entries after “also recorded” stand apart in the source; their conditions may differ.

Experiments:
Hb = target: T1, Hb (Homo sapiens, UniProt P69905); assay: Oxygen equilibrium (P50 shift) of lysates from SS cells, Hemox Analyzer; assay type: cell-based; details: 20% hematocrit
T1 construct: whole blood suspensions from subjects with homozygous SCD (Hct of 20%); from tissue; host or cells: whole blood / red blood cells of patients with homozygous SS sickle cell disease; lysate for HPLC and OEC
Protocol: For our previously studied compounds (e.g., INN-312, TD-7, SAJ-310, INN-298) that incorporate methoxyPy substitution to vanillin analogs, we observed a significant increase in functional and biological activity as a result of increased protein interactions[31],[33],[35],[36]. We therefore expected similar effects for VZHE-039, which we tested by following VZHE-039 activity (measured by Hb adduct formation, P50-shift and RBC sickling inhibition) using SS blood. Briefly, we incubated 0.5, 1, and 2 mM concentrations of VZHE-039 with whole blood suspensions from subjects with homozygous SCD (Hct of 20%) under hypoxic conditions (2.5% O2/97.5% N2) at 37 °C for 2 h for expected peak adduct. Aliquot blood samples were drawn into a fixative (2% glutaraldehyde solution), and sickling was assessed by microscopy[31],[33],[35],[36]. Aliquot samples were also subjected to cation-exchange HPLC analyses to assess the degree of Hb modification to the high-affinity adduct form (Hb adduct formation), as well as standard O2 equilibrium curves (OEC) to assess P50-shifts using hemox analyzer[31],[33],[35],[36]. […] The improved potency of Voxelotor has been attributed to reduced binding stoichiometry, i.e. while Voxelotor binds Hb at a 1:1 ratio, VZHE-039 binds Hb at a 2:1 ratio. […] This observation, as will be discussed later is likely due to a meaningful contribution from the novel O2-independent antisickling activity as result of the strong contact with the αF-helix.
The effect of VZHE-039 on RBC sickling, Hb modification, and Hb oxygen equilibrium was studied utilizing samples from consented individuals with homozygous SCD following previous procedure. Briefly, blood suspended in Hemox buffer and supplemented with glucose and bovine serum albumin, to a final hematocrit of 20% were incubated under air in the absence or presence of 0.5 mM, 1 mM and 2 mM VZHE-039 at 37 °C for 1 h. This was followed by incubating the suspensions under hypoxic conditions (2.5% O2/97.5% N2) at 37 °C for 2 h. Aliquot samples were obtained and fixed with 2% glutaraldehyde solution without exposure to air, and then subjected to microscopic morphological analysis of bright field images (at × 40 magnification) of single layer cells on an Olympus BX40 microscope fitted with an Infinity 2 camera (Olympus), and the coupled Image Capture software. Leftover samples were washed in phosphate-buffer saline, and hemolyzed in hypotonic lysis buffer for subsequent Hb-modification and oxygen equilibrium analyses.
For the oxygen equilibrium studies, 100 μL aliquot samples from the above clarified lysate were added to 4 mL of 0.1 M potassium phosphate buffer, pH 7.0, in cuvettes and subjected to hemoximetry analysis using a Hemox Analyzer (TCS Scientific Corp.) to determine the P50 values.

SS cells = assay: Antisickling activity under anoxia (100% N2); assay type: cell-based, human; details: 2 mM, 100% N2 gas, 30 min
Excerpt: Therefore, another objective in the targeted design of VZHE-039 was to complement its O2-dependent antisickling activity—common to this class of aromatic aldehydes—with an improved O2-independent antisickling activity through proximity-enhanced auxiliary interactions with the αF-helix. Findings from the VZHE-039 crystallographic studies indicate that we achieved the structural objective of enhanced interactions between the methylhydroxy substituent and the αF-helix. We further asked whether these enhanced interactions would translate to an improvement in the O2-independent antisickling activity—as hypothesized. We therefore explored the potential O2-independent activity of VZHE-039, by testing its antisickling properties under complete deoxygenated/anoxic conditions (i.e., 100% N2). […] For internal control purposes, aliquots from samples used for testing for antisickling studies at 2.5% O2 (see above) were also used for testing the antisickling effect of these compounds under 100% N2 gas, therefore, helping elucidate the antisickling effects due to O2-dependent activity of the compounds. Since this experimental design utilized aliquots of the same samples under different gas conditions, it ensured that the assay was free of any potential errors associated with variability in hematocrit and accuracy in drug concentrations.
We conducted two studies to test the antisickling property of VZHE-039 under anoxia to establish the secondary mechanism of action. In the first study, we conducted antisickling studies as described above and also previously reported (2.5% O2)[33], using 2 mM concentrations of VZHE-039, and the controls vanillin, TD-7 and Voxelotor. After 1 h, aliquot samples were fixed with 2% glutaraldehyde without exposure to air. Then the incubation chamber was opened and exposed to air for 15 min to ensure complete re-oxygenation and reversal of the sickled cells to normal round cells. Reversal was confirmed by microscopy. The incubation chamber was then closed, and the assay was repeated under 100% nitrogen gas for 30 min, at which point aliquots were obtained and fixed. Aliquot samples were then subjected to microscopic morphological analysis of bright field images as previously described. Resulting sickled cells (percentages) were compared across samples, and between aliquots of the same samples that had been obtained either under 2.5% oxygen or 100% nitrogen.

T1 sequence (P69905 2-142): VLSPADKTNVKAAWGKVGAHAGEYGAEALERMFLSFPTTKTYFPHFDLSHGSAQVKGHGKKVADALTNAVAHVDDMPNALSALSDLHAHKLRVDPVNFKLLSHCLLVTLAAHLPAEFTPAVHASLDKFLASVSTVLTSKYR
T1 sequence (P68871 with tags, fused parts or gaps E7V partner): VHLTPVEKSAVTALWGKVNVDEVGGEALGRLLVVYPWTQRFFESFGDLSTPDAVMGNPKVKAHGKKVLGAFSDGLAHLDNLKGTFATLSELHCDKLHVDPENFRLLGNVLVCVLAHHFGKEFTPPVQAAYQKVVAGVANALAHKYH

Structure (SMILES): O=Cc1c(O)cccc1OCc1cccc(CO)n1 [VZHE-039, 2-((6-(Hydroxymethyl)pyridin-2-yl)methoxy)-6-hydroxybenzaldehyde]
- P50 Shift (ΔP50) (Hb; 0.5 mM): 22% and 22.3 ± 8.7%
- P50 Shift (ΔP50) (Hb; 1 mM): 47% and 46.6 ± 5.4%
- P50 Shift (ΔP50) (Hb; 2 mM): 76% and 75.6 ± 2.5%
- Antisickling effect under anoxia (in words) (SS cells): inhibited sickling under complete anoxia; also recorded: identical antisickling effects for VZHE-039 under either hypoxia or anoxia
